# In patent US6737383B1, “Herbicidal oxadiazolidines” (priority 1999, dated 2004):
# Assays:
# [1] = test system: purple nutsedge; experiment: Test B pre/postemergence purple nutsedge; assay type: in vivo, Cyperus rotundus
# Outline: (§1)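 Response is a visual 0-to-10 score relative to untreated plants, where 0 means no effect and 10 means complete control, taken twelve to sixteen days after application. Treatments went onto soil at planting and onto foliage of 1- to 4-leaf plants, using a surfactant-containing non-phytotoxic solvent.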
# [2] = test system: velvetleaf; experiment: Test B pre/postemergence velvetleaf; assay type: in vivo, Abutilon theophrasti
# Outline: as §1
# [3] = test system: bedstraw; experiment: Test B pre/postemergence bedstraw; assay type: in vivo, Galium aparine
# Outline: as §1
# [4] = test system: surinam grass; experiment: Test B pre/postemergence surinam grass; assay type: in vivo, Brachiaria decumbens
# Outline: as §1
# [5] = test system: morningglory; experiment: Test B pre/postemergence morningglory; assay type: in vivo, Ipomoea hederacea
# Outline: as §1
# [6] = test system: wild oat; experiment: Test B pre/postemergence wild oat; assay type: in vivo, Avena fatua
# Outline: as §1
# [7] = test system: blackgrass; experiment: Test B pre/postemergence blackgrass; assay type: in vivo, Alopecurus myosuroides
# Outline: as §1
# [8] = test system: soybean; experiment: Test B pre/postemergence soybean; assay type: in vivo, Glycine max
# Outline: as §1
# [9] = test system: cocklebur; experiment: Test B pre/postemergence cocklebur; assay type: in vivo, Xanthium strumarium
# Outline: as §1
# [10] = test system: sugar beet; experiment: Test B pre/postemergence sugar beet; assay type: in vivo, Beta vulgaris
# Outline: as §1
# [11] = test system: pigweed; experiment: Test B pre/postemergence pigweed; assay type: in vivo, Amaranthus retroflexus
# Outline: as §1
# [12] = test system: corn; experiment: Test B pre/postemergence corn; assay type: in vivo, Zea mays
# Outline: as §1
# [13] = test system: rape; experiment: Test B pre/postemergence rape; assay type: in vivo, Brassica napus
# Outline: as §1
# [14] = Postemergence, Rate 62 g/ha, scale 0 to 10, 0 is no effect, 10 is complete control
# [15] = Postemergence, Rate 125 g/ha, scale of 0 to 10 where 0 is no effect and 10 is complete control
# [16] = Postemergence, Rate 250 g/ha, scale 0 to 10, 0 no effect, 10 complete control
# [17] = Preemergence, Rate 62 g/ha, scale 0 to 10 (0 no effect, 10 complete control)
# [18] = Preemergence, Rate 125 g/ha, scale 0 to 10 (0 no effect, 10 complete control)
# [19] = Preemergence, Rate 250 g/ha, scale of 0 to 10 where 0 is no effect and 10 is complete control
# [20] = Preemergence, Rate 500 g/ha, scale 0 (no effect) to 10 (complete control)
# [21] = Rate 500 g/ha, Postemergence, scale 0 to 10, 0 no effect, 10 complete control
# [22] = Rate 125 g/ha, Postemergence, scale 0 to 10, 0 no effect, 10 complete control
structure (smiles),measurement,setting,value
Cc1ccccc1Cn1c(=O)on(C(=O)N(c2ccc(F)cc2)C(C)C)c1=O [Compound 88],Nutsedge plant response rating,[1]; [14],0
same,Nutsedge plant response rating,[1]; [15],0
same,Nutsedge plant response rating,[1]; [16],0
same,Nutsedge plant response rating,[1]; [17],0
same,"Plant response rating, Nutsedge",[1]; [18],0
same,"Plant response rating, Nutsedge",[1]; [19],0
same,Nutsedge plant response rating,[1]; [20],0
same,Nutsedge plant response rating,[1]; [21],0
same,Velvetleaf plant response rating,[2]; [14],0
same,Velvetleaf plant response rating,[2]; [15],0
same,Velvetleaf plant response rating,[2]; [16],0
same,Velvetleaf plant response rating,[2]; [17],0
same,"Plant response rating, Velvetleaf",[2]; [18],0
same,"Plant response rating, Velvetleaf",[2]; [19],0
same,Velvetleaf plant response rating,[2]; [20],2
same,Velvetleaf plant response rating,[2]; [21],0
same,Bedstraw plant response rating,[3]; [14],3
same,Bedstraw plant response rating,[3]; [16],9
same,Bedstraw plant response rating,[3]; [17],0
same,"Plant response rating, Bedstraw",[3]; [18],0
same,"Plant response rating, Bedstraw",[3]; [19],0
same,Bedstraw plant response rating,[3]; [20],2
same,Bedstraw plant response rating,[3]; [22],8
same,Bedstraw plant response rating,[3]; [21],9
same,B. signalgrass plant response rating,[4]; [14],0
same,B. signalgrass plant response rating,[4]; [16],0
same,B. signalgrass plant response rating,[4]; [17],0
same,"Plant response rating, B. signalgrass",[4]; [18],2
same,"Plant response rating, B. signalgrass",[4]; [19],2
same,B. signalgrass plant response rating,[4]; [20],5
same,B. signalgrass plant response rating,[4]; [22],2
same,B. signalgrass plant response rating,"[4]; Rate 500 g/ha, Postemergence, scale of 0 to 10 where 0 is no effect and 10 is complete control",2
same,Morningglory plant response rating,[5]; [14],8
same,Morningglory plant response rating,[5]; [15],10
same,Morningglory plant response rating,[5]; [16],10
same,Morningglory plant response rating,[5]; [17],0
same,"Plant response rating, Morningglory",[5]; [18],0
same,"Plant response rating, Morningglory",[5]; [19],0
same,Morningglory plant response rating,[5]; [20],0
same,Morningglory plant response rating,[5]; [21],10
same,Wild oats plant response rating,[6]; [14],0
same,Wild oats plant response rating,[6]; [15],0
same,Wild oats plant response rating,[6]; [16],0
same,Wild oats plant response rating,[6]; [17],0
same,"Plant response rating, Wild oats",[6]; [18],2
same,"Plant response rating, Wild oats",[6]; [19],2
same,Wild oats plant response rating,[6]; [20],5
same,Wild oats plant response rating,[6]; [21],0
same,Blackgrass plant response rating,[7]; [14],2
same,Blackgrass plant response rating,[7]; [15],5
same,Blackgrass plant response rating,[7]; [16],6
same,Blackgrass plant response rating,[7]; [17],1
same,"Plant response rating, Blackgrass",[7]; [18],4
same,"Plant response rating, Blackgrass",[7]; [19],4
same,Blackgrass plant response rating,[7]; [20],6
same,Blackgrass plant response rating,[7]; [21],6
same,Soybean plant response rating,[8]; [14],1
same,Soybean plant response rating,[8]; [15],1
same,Soybean plant response rating,[8]; [16],1
same,Soybean plant response rating,[8]; [17],0
same,"Plant response rating, Soybean",[8]; [18],0
same,"Plant response rating, Soybean",[8]; [19],0
same,Soybean plant response rating,[8]; [20],2
same,Soybean plant response rating,[8]; [21],1
same,Cocklebur plant response rating,[9]; [14],0
same,Cocklebur plant response rating,[9]; [15],0
same,Cocklebur plant response rating,[9]; [16],1
same,Cocklebur plant response rating,[9]; [17],0
same,"Plant response rating, Cocklebur",[9]; [18],0
same,"Plant response rating, Cocklebur",[9]; [19],0
same,Cocklebur plant response rating,[9]; [20],0
same,Cocklebur plant response rating,[9]; [21],5
same,Sugarbeets plant response rating,[10]; [14],3
same,Sugarbeets plant response rating,[10]; [15],5
same,Sugarbeets plant response rating,[10]; [16],7
same,Sugarbeets plant response rating,[10]; [17],2
same,"Plant response rating, Sugarbeets",[10]; [18],3
same,"Plant response rating, Sugarbeets",[10]; [19],6
same,Sugarbeets plant response rating,[10]; [20],8
same,Sugarbeets plant response rating,[10]; [21],7
same,Redroot pigweed plant response rating,[11]; [14],3
same,Redroot pigweed plant response rating,[11]; [15],3
same,Redroot pigweed plant response rating,[11]; [16],3
same,Redroot pigweed plant response rating,[11]; [17],9
same,"Plant response rating, Redroot pigweed",[11]; [18],10
same,"Plant response rating, Redroot pigweed",[11]; [19],10
same,Redroot pigweed plant response rating,[11]; [20],10
same,Redroot pigweed plant response rating,[11]; [21],5
same,Corn plant response rating,[12]; [14],0
same,Corn plant response rating,[12]; [15],0
same,Corn plant response rating,[12]; [16],0
same,Corn plant response rating,[12]; [17],0
same,"Plant response rating, Corn",[12]; [18],0
same,"Plant response rating, Corn",[12]; [19],0
same,Corn plant response rating,[12]; [20],0
same,Corn plant response rating,[12]; [21],0
same,Rape plant response rating,[13]; [14],0
same,Rape plant response rating,[13]; [15],0
same,Rape plant response rating,[13]; [16],0
same,Rape plant response rating,[13]; [17],0
same,"Plant response rating, Rape",[13]; [18],0
same,"Plant response rating, Rape",[13]; [19],0
same,Rape plant response rating,[13]; [20],0
same,Rape plant response rating,[13]; [21],3
